Experiments:
[1] = system: PDX GL1208; test: karenitecin treatment of PDX model; type: in vivo; parameters: key to Response: responder: responded to karenitecin treatment (AUC<0.5 and TGI>0.8); non_responder: did not respond to karenitecin treatment (AUC>0.5 and TGI<0.6); conditions: karenitecin treatment for two weeks
Procedure: (§1) A cohort of 48 PDX models in 8 cancers were used in this study. Those models were subject to karenitecin treatment for two weeks. Both tumor growth inhibition (TGI) and median AUC (area under curve) ratio, a newly developed metric to evaluate drug efficacy, were calculated (Table 1). Those models can be divided into two categories according to TGI and median AUC ratio.

[2] = system: PDX LU1235; test: karenitecin treatment of PDX model; type: in vivo; parameters: key to Response: responder: responded to karenitecin treatment (AUC<0.5 and TGI>0.8); non_responder: did not respond to karenitecin treatment (AUC>0.5 and TGI<0.6); conditions: karenitecin treatment for two weeks
Procedure: as §1

[3] = system: PDX LU1901; test: karenitecin treatment of PDX model; type: in vivo; parameters: key to Response: responder: responded to karenitecin treatment (AUC<0.5 and TGI>0.8); non_responder: did not respond to karenitecin treatment (AUC>0.5 and TGI<0.6); conditions: karenitecin treatment for two weeks
Procedure: as §1

[4] = system: PDX OV0276; test: karenitecin treatment of PDX model; type: in vivo; parameters: key to Response: responder: responded to karenitecin treatment (AUC<0.5 and TGI>0.8); non_responder: did not respond to karenitecin treatment (AUC>0.5 and TGI<0.6); conditions: karenitecin treatment for two weeks
Procedure: as §1

[5] = system: PDX GA3109; test: karenitecin treatment of PDX model; type: in vivo; parameters: key to Response: responder: responded to karenitecin treatment (AUC<0.5 and TGI>0.8); non_responder: did not respond to karenitecin treatment (AUC>0.5 and TGI<0.6); conditions: karenitecin treatment for two weeks
Procedure: as §1

[6] = system: PDX LU0884; test: karenitecin treatment of PDX model; type: in vivo; parameters: key to Response: responder: responded to karenitecin treatment (AUC<0.5 and TGI>0.8); non_responder: did not respond to karenitecin treatment (AUC>0.5 and TGI<0.6); conditions: karenitecin treatment for two weeks
Procedure: as §1

[7] = system: PDX ES0176; test: karenitecin treatment of PDX model; type: in vivo; parameters: key to Response: responder: responded to karenitecin treatment (AUC<0.5 and TGI>0.8); non_responder: did not respond to karenitecin treatment (AUC>0.5 and TGI<0.6); conditions: karenitecin treatment for two weeks
Procedure: as §1

[8] = system: PDX LU1144; test: karenitecin treatment of PDX model; type: in vivo; parameters: key to Response: responder: responded to karenitecin treatment (AUC<0.5 and TGI>0.8); non_responder: did not respond to karenitecin treatment (AUC>0.5 and TGI<0.6); conditions: karenitecin treatment for two weeks
Procedure: as §1

[9] = system: PDX ES0110; test: karenitecin treatment of PDX model; type: in vivo; parameters: key to Response: responder: responded to karenitecin treatment (AUC<0.5 and TGI>0.8); non_responder: did not respond to karenitecin treatment (AUC>0.5 and TGI<0.6); conditions: karenitecin treatment for two weeks
Procedure: as §1

[10] = system: PDX PA0527; test: karenitecin treatment of PDX model; type: in vivo; parameters: key to Response: responder: responded to karenitecin treatment (AUC<0.5 and TGI>0.8); non_responder: did not respond to karenitecin treatment (AUC>0.5 and TGI<0.6); conditions: karenitecin treatment for two weeks
Procedure: as §1

[11] = system: PDX LU0330; test: karenitecin treatment of PDX model; type: in vivo; parameters: key to Response: responder: responded to karenitecin treatment (AUC<0.5 and TGI>0.8); non_responder: did not respond to karenitecin treatment (AUC>0.5 and TGI<0.6); conditions: karenitecin treatment for two weeks
Procedure: as §1

[12] = system: PDX SA0271; test: karenitecin treatment of PDX model; type: in vivo; parameters: key to Response: responder: responded to karenitecin treatment (AUC<0.5 and TGI>0.8); non_responder: did not respond to karenitecin treatment (AUC>0.5 and TGI<0.6); conditions: karenitecin treatment for two weeks
Procedure: as §1

[13] = system: PDX CR2528; test: karenitecin treatment of PDX model; type: in vivo; parameters: key to Response: responder: responded to karenitecin treatment (AUC<0.5 and TGI>0.8); non_responder: did not respond to karenitecin treatment (AUC>0.5 and TGI<0.6); conditions: karenitecin treatment for two weeks
Procedure: as §1

[14] = system: extensively pretreated ovarian cancer; conditions: previous clinical trial (Kavanagh 2008); cited from earlier work

For `CC[C@@]1(O)C(=O)OCc2c1cc1n(c2=O)Cc2c-1nc1ccccc1c2CC[Si](C)(C)C` [karenitecin], the “Median AUC ratio” value [1] was 0.811, the Response [1] was “non_responder” and the TGI [1] was 0.135. For the same compound, the “Median AUC ratio” value [2] was −0.018, the Response [2] was “responder” and the TGI [2] was 0.932. The “Median AUC ratio” value [3] was −0.295, the Response [3] was “responder” and the TGI [3] was 1.077. The “Median AUC ratio” value [4] was 0.314, the Response [4] was “responder” and the TGI [4] was 1.103. The “Median AUC ratio” value [5] was 0.137, the Response [5] was “responder” and the TGI [5] was 1.046. The “Median AUC ratio” value [6] was 1.497, the Response [6] was “non_responder” and the TGI [6] was −0.188. For the same compound, the “Median AUC ratio” value [7] was 1.242, the Response [7] was “non_responder” and the TGI [7] was −0.177. The “Median AUC ratio” value [8] was 1.056, the Response [8] was “non_responder” and the TGI [8] was 0.378. For the same compound, the “Median AUC ratio” value [9] was 0.344, the Response [9] was “responder” and the TGI [9] was 1.010. The “Median AUC ratio” value [10] was 0.316, the Response [10] was “responder” and the TGI [10] was 0.996. For the same compound, the “Median AUC ratio” value [11] was 1.094, the Response [11] was “non_responder” and the TGI [11] was 0.000. The “Median AUC ratio” value [12] was −0.133, the Response [12] was “responder” and the TGI [12] was 1.104. The “Median AUC ratio” value [13] was 1.014, the Response [13] was “non_responder” and the TGI [13] was 0.519. For the same compound, the response rate [14] was “low”.

— patent US11339447B2, “System and method for determining Kareniticin sensitivity on cancer” (CROWN BIOSCIENCE, INC. (TAICANG), priority 2017, dated 2022)
